# Measurements as given in patent publication US8030493B2, “Monovalent and divalent salts of N-(5-hydroxynicotinoil) -L-glutamic acid exhibiting psychotropic (antidepressant and anxiolytic), neuroprotective, geroprotective and cerebroprotective action” (Obschestvo S Ogranichennoy Otvetstvennostyu “Natsionalnaya …, priority 2006, dated 2011).
# Values joined by “and” are separate entries in the source; they are usually repeats but may differ in a detail not shown here. Identical values can stand only once. Marks after values point to notes of the source that are not given here.
# How the values were obtained:
# aged rats (24 months) = assay: Motor coordination of aged rats on rotating rod; type: in vivo; details: for Number of the animals (%), which obtained the skill, By attempt 5 / Number of the animals (%), which obtained the skill, By attempt 15 / Number of the animals (%), which obtained the skill, By attempt 10: aged rats 24 months, 20 mg/kg 60 days, rotating rod 2 minutes; for Number of the animals (%), which obtained the skill, By attempt 10: 20 mg/kg; for Number of attempts required for learning to 50% of the animals: aged rats treated for 2 months, untreated aged animals 17th attempt
# Experimental: White nondescript male rats (Wistar line): to adult animals at age 3 months with body weight 250-300 g and aged 24 month old animals with body weight 350-450 g were used in the study. Nooglutyl at dose level 20 mg/kg and Compound I were administered to aged rats intraperitoneally for 2 months followed by assessment of the effect on learning capacity impaired by age and neurological deficit. Analysis of variance with Student's test, variant portion method and U-test were employed for data processing.
# To assess neurological deficit in aged animals (disturbed coordination and capacity for learning motor responses) the rats were placed on the rotating rod. The number of attempts required to obtain the skill of holding on the rotating rod for 2 minutes was registered. […] Under similar conditions only 25% of aged rats obtained this skill starting from the 11th-14th attempt. […] 60% of aged rats treated with nooglutyl and 66% of aged rats treated with Compound I for 2 months learned the skill by the 10th attempt.
# mice SAM P 10 [1] = assay: Antidepressant activity: forced swimming in mice SAM; type: in vivo; details: first 6 minutes of forced swimming
# Experimental: Exp. Gerontolol. 1997, […]. et al. Age-related deterioration in conditional avoidance task in the SAM-P/10 mouse, an animal model of spontaneous brain atrophy. Brain Res., 1993, v. 608, p. 266-272). To assess depressive condition the method of forced swimming was used (Porsolt R. D. et al., Behavioral despair in rats: a new model sensitive to antidepressant treatment. Europ. J. […] The mice were placed into cylinder 10 cm in diameter and 25 cm height. Cylinder was filled with water by 1⁄3 (27° C.). After unsuccessful attempts to get out of the water the animals have typical immovable posture, which is regarded as manifestation of “despair”.
# mice SAM P 10 [2] = assay: Anxiolytic activity: elevated criss-cross labyrinth in mice SAM P10; type: in vivo; details: 5 minutes observation
# From the text: (Takeda T. et al. Senescence-Accelerated Mouse (SAM): A novel murine model of accelerated senescence. J. Amer. Geriatr. Soc. 1991, v. 39, p. 911-919). The animals belonging to this line are characterized by genetically determined depression and impairment of learning capacity, these symptoms intensively aggravate since 6 months of age (accelerated senescence) (Miyamoto M., Characteristics of age-related behavioral changes in senescence-accelerated mouse SAMP8 and SAMP10. Exp. Gerontolol. 1997, v. 32, p. 139-148; Shimada A. et al. Age-related deterioration in conditional avoidance task in the SAM-P/10 mouse, an animal model of spontaneous brain atrophy. Brain Res., 1993, v. 608, p. 266-272). Assessment of anxiety level of the mice was carried out under conditions of “elevated criss-cross labyrinth” (ECCL) method (Pellow S. et al. Validation of open:closed arm entries in elevated plus-maze as a measure of anxiety in the rat. Neurosci Meth J. 1985, No 14, p. 149-167; Voronina T. A. et al. “Textbook for Experimental (Preclinical Study) of novel pharmacological compounds”. Moscow, Medicina. 2005, p. 253-263). Labyrinth comprises crossed bands 5×45 cm, with two opposed compartments having vertical walls 30 cm height (closed, dark arms), and two other compartments are open, light arms. Labyrinth is situated 30 cm above the floor. Central platform […] is located at the cross of the planes. The mice were placed on the central platform with their tails directed to light arm. Time spent by the animals in open and closed arms, and the number of entering light and dark arms was registered. Total observation period comprised 5 minutes for each animal. Time spent in the open arms of the unit was considered as the measure of anxiolytic effect.
# [3] = test system: white nondescript male mice; assay: in vivo; details: white nondescript (outbred), mouse, ip, 2 days
# Experimental: The study of acute daily toxicity of Compound I was carried out on white nondescript male mice with body weight 25-28 g, which lived in habitual conditions in vivarium and received feed and water ad libitum. Single dose of Compound I was administered intraperitoneally. The animals were under observation for 2 days after the dosing. The dose levels of Compound I used in the toxicity study were as follows: 800 mg/kg, 1000 mg/kg, 1200 mg/kg, 1500 mg/kg, 1600 mg/kg. Compound I was dissolved in distilled water and administered in 0, 1 ml per 10 g of the body weight of the animal when the doses 800 mg/kg and 1000 mg/kg, and in 0.2 ml per 10 g of the body weight when the doses 1200 mg/kg, 1500 mg/kg, 1600 mg/kg were used. Control animals received distilled water in the volume 0.2 ml per 10 g of the body weight.
# Each dose group comprised 10 animals.
smiles,measurement,setting,value
"O=C([O-])CC[C@H](NC(=O)c1cncc(O)c1)C(=O)[O-].[Ca+2] [Compound I, Calcium N-(5-hydroxynicotinoyl)-L-glutamate]","Number of the animals (%), which obtained the skill, By attempt 5",aged rats (24 months),20%
same,"Number of the animals (%), which obtained the skill, By attempt 15",aged rats (24 months),66# %
same,"Number of the animals (%), which obtained the skill, By attempt 10",aged rats (24 months),66% and 60# %
same,Number of attempts required for learning to 50% of the animals,aged rats (24 months),6 attempt
same,Period of active behaviour,mice SAM P 10 [1]; 10 mg/kg,190.00 ± 9.50 s
same,Period of active behaviour,mice SAM P 10 [1]; 20 mg/kg,225.00 ± 10.97 s
same,Number of entries the closed arms,mice SAM P 10 [2]; 5 mg/kg,15.6 ± 2.1
same,Number of entries the opened arms,mice SAM P 10 [2]; 5 mg/kg,5.7 ± 0.6
same,Time spent in the closed arms (c),mice SAM P 10 [2]; 5 mg/kg,247.0 ± 6.4 c
same,Time spent in the opened arms (c),mice SAM P 10 [2]; 5 mg/kg,21.1 ± 4.6 c
same,Number of entries the closed arms,mice SAM P 10 [2]; 10 mg/kg,20.51 ± 3.1
same,Number of entries the opened arms,mice SAM P 10 [2]; 10 mg/kg,7.7 ± 0.2
same,Time spent in the closed arms (c),mice SAM P 10 [2]; 10 mg/kg,262.0 ± 22.1 c
same,Time spent in the opened arms (c),mice SAM P 10 [2]; 10 mg/kg,23.9 ± 5.8 c
same,Number of entries the closed arms,mice SAM P 10 [2]; 20 mg/kg,19.3 ± 2.5
same,Number of entries the opened arms,mice SAM P 10 [2]; 20 mg/kg,13.0 ± 1.1
same,Time spent in the closed arms (c),mice SAM P 10 [2]; 20 mg/kg,234.8 ± 8.7 c
same,Time spent in the opened arms (c),mice SAM P 10 [2]; 20 mg/kg,28.4 ± 6.2 c
same,LD16,[3],900 mg/kg
same,LD84,[3],1450 mg/kg
"O=C(O)CC[C@H](NC(=O)c1cncc(O)c1)C(=O)O [Nooglutyl, N-(5-hydroxynicotinoyl)-L-glutamic acid, reference compound]","Number of the animals (%), which obtained the skill, By attempt 5",aged rats (24 months),20%
same,"Number of the animals (%), which obtained the skill, By attempt 15",aged rats (24 months),60# %
same,"Number of the animals (%), which obtained the skill, By attempt 10",aged rats (24 months),60# %
same,"Number of the animals (%), which obtained the skill, By attempt 10",aged rats (24 months); listed as nooglutyl,60%
same,Number of attempts required for learning to 50% of the animals,aged rats (24 months),7 attempt
